According to patent US4329353A (priority 1981, dated 1982):
Where a name gives a salt, the structure may show the parent alone. Read-outs that look alike come from different tables or passages of the source.

System: apomorphine-induced emesis
Test: animal or person
Type: in vivo, beagle dogs
Conditions: Canis lupus familiaris, sc, 1 h

Compound	ED50 (read-out: ED50 (APO)-dog) [µg/kg]	ED50 (read-out: ED50 (APO)dog) [µg/kg]
CC(=O)CCN1CN(c2ccc(F)cc2)C2(CCN(C3CCC(C#N)(c4ccc(F)cc4)CC3)CC2)C1=O (single isomer, unassigned) [CH2 CH2 COCH3, B, HCl . H2 O]	2	
NC(=O)C1(c2ccc(F)cc2)CCC(N2CCC3(CC2)C(=O)NCN3c2ccc(F)cc2)CC1 (centres unmarked) [CONH2,4-FC6 H4,4-FC6 H4, B, base, (B)-1-(4-fluorophenyl)-4-[1-(4-fluorophenyl)-4-oxo-1,3,8-triazaspiro[4,5]dec-8-yl]cyclohexanecarboxamide]		8
N#CC1(c2ccc(F)cc2)CCC(N2CCC3(CC2)C(=O)N(C(=O)Nc2ccccc2)CN3c2ccc(F)cc2)CC1 (centres unmarked) [CONHC6 H5, B, base, (B)-8-[4-cyano-4-(4-fluorophenyl)cyclohexyl]-1-(4-fluorophenyl)-4-oxo-N-phenyl-1,3,8-triazaspiro[4,5]decane-3-carboxamide]	< 160	
COC(=O)C1(c2ccc(F)cc2)CCC(N2CCC3(CC2)C(=O)NCN3c2ccc(F)cc2)CC1 (centres unmarked) [COOCH3,4-FC6 H4,4-FC6 H4, base]		1.8
CNC(=S)N1CN(c2ccc(F)cc2)C2(CCN(C3CCC(C#N)(c4ccc(F)cc4)CC3)CC2)C1=O (centres unmarked) [CSNHCH3, base, (B)-8-[4-cyano-4-(4-fluorophenyl)cyclohexyl]-1-(4-fluorophenyl)-N-methyl-4-oxo-1,3,8-triazaspiro[4,5]decane-3-carbothioamide]	< 4	
